In patent US9977014B2, “Nanoparticle sensor for nucleic acid-protein interaction” (Agency for Science, Technology and Research, priority 2013, dated 2018):

Assays:
AP-2γ [1] = molecular target: T1, AP-2γ (Homo sapiens, UniProt Q92754); assay: Electrophoretic Mobility Shift Assay (EMSA), DNA probe binding; parameters: made in house; conditions: read-out: Binding constant (Kd)
From the text: (§1) Electrophoretic Mobility Shift Assay (EMSA): Invitrogen Corporation, Panomics Inc., Pierce Biotechnology, Viagene Inc.

AP-2γ [2] = molecular target: T1, AP-2γ; assay: Fluorescence anisotropy (FA) with labelled DNA probes; parameters: made in house; conditions: read-out: Binding constant (Kd)
AP-2γ [3] = molecular target: T1, AP-2γ; assay: CP/dsDNA-AuNP hybrid sensor protein titration
Protocol: The protein-DNA binding assay was conducted in three main steps (FIG. 4(A)): • 1) 50 nM dsDNA-AuNPs (referring to dsDNA concentration on the surface of AuNPs) was incubated with protein for 20-40 min at room temperature (RT).
Based on the relationship between protein concentration and fluorescence intensity, the binding constant, Kd, can be calculated using the equation: (F0−F)/(F−Fsat)=([protein]/Kd)^n. […] The slope, n, is the binding stoichiometry of protein to DNA.
The assay was also used to study a second transcription factor, AP-2γ (pI˜7.8), to test the applicability of the method. wtR3 and mtR3 were used as the probe DNA sequences (Table 2). […] From the relative decrease and increase in fluorescent intensity of CP with increasing concentration of AP-2γ, the binding affinity Kd and n were determined.

His-MBP-FoxA1 = molecular target: T2, His-MBP-FoxA1 (Homo sapiens, UniProt P55317); assay: Fluorescence anisotropy (FA) with FAM-labelled DNA probes; conditions: read-out: Binding constant (Kd)
T2 construct: Full-length FoxA1 cDNA was cloned into a pHISMBP (Addgene) expression vector; made in house; host or cells: E. coli BL21 (DE3)
T2 sequence (P55317 1-472): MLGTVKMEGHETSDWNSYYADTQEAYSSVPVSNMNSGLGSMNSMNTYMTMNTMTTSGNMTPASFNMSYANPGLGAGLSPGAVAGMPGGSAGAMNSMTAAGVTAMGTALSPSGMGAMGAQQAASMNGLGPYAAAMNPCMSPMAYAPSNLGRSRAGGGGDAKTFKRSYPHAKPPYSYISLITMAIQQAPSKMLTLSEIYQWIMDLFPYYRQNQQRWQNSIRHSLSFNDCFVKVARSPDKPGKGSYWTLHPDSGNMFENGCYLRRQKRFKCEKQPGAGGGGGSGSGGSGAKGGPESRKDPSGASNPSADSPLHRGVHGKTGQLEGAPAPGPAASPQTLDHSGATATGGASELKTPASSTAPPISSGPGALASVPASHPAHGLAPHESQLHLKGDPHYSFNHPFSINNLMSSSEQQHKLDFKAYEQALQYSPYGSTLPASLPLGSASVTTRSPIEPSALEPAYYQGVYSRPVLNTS
Protocol: Fluorescence anisotropy (FA): To determine the binding activity of His-MBP-FoxA1 to various FoxA1 probes containing its cognate DNA element, fluorescence anisotropy (FA) assay was utilized. The wildtype and two mutant probes for FoxA1, labelled with carboxyfluorescein (FAM), are as described earlier in Table 1. The assays were carried out in 384-well microplates (Corning) in which varying concentrations of protein were incubated with 2 nM of the labelled probe in PBS buffer for 20 min at room temperature (RT). To examine the effects of small molecule inhibitors on FoxA1 DNA binding, 125 nM of protein was pre-incubated with 5% DMSO, or 1 mM unlabelled probe, or 1.9 mM inhibitor for 1 h, at room temperature (RT), before the addition of 2 nM of the FAM labelled probe for another hour incubation.
Fluorescence anisotropy was measured using Synergy 2 Multi-Mode Microplate Reader with a 485/20-excitation and a 528/20-emission filter. The equilibrium dissociation constants for each wild-type probe were subsequently calculated by fitting the FoxA1 concentration vs. fluorescence polarization plot using Langmuir isotherm in Origin Pro 8 software. Standard error values (precision of the fitted values) were also obtained from the software after fitting.

FoxA1 [4] = molecular target: T3, FoxA1 (Homo sapiens, UniProt P55317); assay: Electrophoretic Mobility Shift Assay (EMSA), DNA probe binding; conditions: read-out: Binding constant (Kd)
T3 construct: Full-length FoxA1 cDNA was cloned into a pHISMBP (Addgene) expression vector; made in house; host or cells: E. coli BL21 (DE3)
T3 sequence (P55317 1-472): T2 sequence (P55317 1-472)
From the text: as §1

FoxA1 [5] = molecular target: T3, FoxA1; assay: CP/dsDNA-AuNP hybrid sensor protein titration; conditions: read-out: Binding constant (Kd)
Protocol: Qualitatively, the affinity of FOxA1 to different DNA probes can be identified by the degree of change in fluorescence intensity. For measuring the binding affinity constant Kd, protein titration was conducted using protein:DNA molar ratios of 0:1 to 5:1. That is, in a 50 nM solution of dsDNA-AuNPs, protein was added to achieve a concentration of 0-250 nM. The respective fluorescence intensity of the subsequent CP emission was recorded and compared with a control reaction containing no protein (FIG. 12).

FoxA1 [6] = molecular target: T3, FoxA1; assay: Ligand inhibition of DNA-protein interaction, CP/Probe2-AuNP hybrid sensor; format: binding; conditions: protein:ligand 1:8
Protocol: For screening of ligand inhibition of the DNA-protein interaction (FIG. 4(B)), the ligand and protein were incubated at a molar ratio of 8:1 for 10-20 min at RT prior to the addition of dsDNA-AuNP in step (1) above. Steps (1), (2) and (3) were then repeated.
The proteins and each ligand were mixed at a ratio of 1:8 for 10 min. The protein-ligand pre-incubation solution was then mixed with dsDNA-AuNP and further incubated for 20 mins. The CP was then added as the last step. Positive and negative controls were also prepared, where the positive control was dsDNA-AuNP incubated with protein without ligand, and the negative control was dsDNA-AuNPs incubated without any protein added.

FoxA1 and AP2γ = assay: Ligand selectivity (positive = inhibitor, negative) listed in Table 3; format: binding; parameters: key: Positive: A positive ligand refers to a ligand that can inhibit protein binding to DNA; Negative: a negative ligand is a ligand that does not interrupt the binding
From the text: 9 small ligands (as described in Table 3) were used to disrupt the DNA-protein interaction. […] It must be clearly understood that a particular ligand can bind strongly (with high affinity) to a certain protein but not inhibit the subsequent protein binding to DNA and vice versa. The main objective of this assay is to screen ligands that can interrupt protein binding to DNA regardless of their affinity to the protein. All of the ligands were kept as solutions in DMSO. Before using, they were thawed in a room temperature water bath.

[7] = CP/dsDNA-AuNPs hybrid sensor (ACP-430)
[8] = CP/dsDNA-AuNPs hybrid sensor (ACP-560)
[9] = CP/dsDNA-AuNPs hybrid sensor (CCP-410)

T1 sequence (Q92754 whole entry, species assumed): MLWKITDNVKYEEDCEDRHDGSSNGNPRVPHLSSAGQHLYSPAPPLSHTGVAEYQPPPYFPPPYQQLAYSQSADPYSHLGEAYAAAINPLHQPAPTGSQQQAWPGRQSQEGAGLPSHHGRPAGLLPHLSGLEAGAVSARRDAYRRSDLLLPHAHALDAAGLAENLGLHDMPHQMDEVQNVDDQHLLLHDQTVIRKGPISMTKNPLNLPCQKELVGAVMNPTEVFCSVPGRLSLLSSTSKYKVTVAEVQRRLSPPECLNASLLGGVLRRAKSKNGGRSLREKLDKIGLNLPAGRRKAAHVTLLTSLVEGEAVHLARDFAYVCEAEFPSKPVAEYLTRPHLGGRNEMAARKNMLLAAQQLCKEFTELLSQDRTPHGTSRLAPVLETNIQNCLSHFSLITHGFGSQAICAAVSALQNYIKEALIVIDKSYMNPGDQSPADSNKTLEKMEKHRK

Compound	Kd (His-MBP-FoxA1) [nM]	Kd (FoxA1 [4]) [nM]	Kd (FoxA1 [5]; [7]) [nM]	Kd (FoxA1 [5]; [8]) [nM]	Kd (FoxA1 [5]; [9]) [nM]	further results
wtR3: GC rich wild-type DNA for AP-2γ, 5′-AAAGTGCCCAGAGCCCATG-3′ (SEQ ID NO: 7) with complementary strand (antisense CATGGGCTCTGGGCACTTT; DNA, backbone and methylation of C not given here; sense strand 5'-thiol-labelled, conjugated to gold nanoparticles)	–	–	–	–	–	Kd (AP-2γ [1]): 139 nM; Kd (AP-2γ [2]): 50.6 nM; Kd (AP-2γ [3]; read-out: Binding constant (Kd), CP/dsDNA-AuNPs hybrid sensor (ACP-430)): 12.4 nM; Kd (AP-2γ [3]; read-out: Binding constant (Kd), CP/dsDNA-AuNPs hybrid sensor (ACP-560)): 14.6 nM; Kd (AP-2γ [3]; read-out: Binding constant (Kd), CP/dsDNA-AuNPs hybrid sensor (CCP-410)): 13 nM
Probe1: FoxA1 DNA probe 5′-CACTTTGTTTGCAAAGC-3′ (SEQ ID NO: 1) with complementary strand; modified at the centre (antisense GCTTTGCAAACAAAGTG; DNA, backbone and methylation of C not given here; sense strand 5'-thiol-labelled, conjugated to gold nanoparticles)	231	459	31.3	32.9	34.1	–
Probe2: Ideal FoxA1 DNA probe 5′-GTACTGTAAATAAAACT-3′ (SEQ ID NO: 3) with complementary strand (antisense AGTTTTATTTACAGTAC; DNA, backbone and methylation of C not given here; sense strand 5'-thiol-labelled, conjugated to gold nanoparticles)	16	47.8	4.47	5.76	5.02	–
Nc1ccc2nc3ccc(=O)cc-3n(-c3ccccc3)c2c1 [Ligand 4]	–	–	–	–	–	Ligand effect on FoxA1-DNA binding (FoxA1 [6]; ACP-430/Probe2-AuNP and CCP-410/Probe2-AuNP): negligible effect; Ligand influence on FoxA1-Probe2 binding (FoxA1 [6]; ACP-430/Probe2-AuNP): retain its binding capability; Selectivity for FoxA1 and AP2γ (FoxA1 and AP2γ): Negative
